Test [1] addresses neuraminidase (NA) of A/HebeiXinhua/SWL1106/2017 (oseltamivir- and amantadine-resistant H1N1). It counts as biochemical, influenza A virus. The settings on record: read-out: IC50, NA inhibition test, A/HebeiXinhua/SWL1106/2017.
Test [2] deals with neuraminidase (NA) of A/FujianXinluo/SWL2457/2014 (amantadine-resistant H1N1). In kind it is biochemical, influenza A virus. To be noted: read-out: IC50, NA inhibition test, A/FujianXinluo/SWL2457/2014.
In test [3] the test system is wild-type and resistant IAV strains. The experiment in a line: microbe, parasite or virus in culture. It counts as cell-based, influenza A virus. The settings on record: for IC50: Influenza A virus, read-out: IC50, protective effects for cells infected with the resistant IAV strains (CPE).
In test [4] the test system is A/FujianXinluo/SWL2457/2014 (amantadine-resistant H1N1). The experiment in a line: microbe, parasite or virus in culture. In kind it is cell-based. The settings on record: Influenza A virus, H1N1, MDCK.
Test [5] relates to A/HebeiXinhua/SWL1106/2017 (oseltamivir- and amantadine-resistant H1N1). The experiment in a line: microbe, parasite or virus in culture. In kind it is cell-based, influenza A virus.
[6] abbreviates: read-out: IC50, CPE reduction, A/FujianXinluo/SWL2457/2014, Drug administration after virus inoculation.
Setting [7] is: read-out: IC50, CPE reduction, A/FujianXinluo/SWL2457/2014, Pre-incubation of virus and drug.
The mark [8] stands for this setting: read-out: IC50, CPE reduction, A/FujianXinluo/SWL2457/2014, Simultaneous action of virus and drug.
The mark [9] stands for this setting: read-out: IC50, CPE reduction, A/FujianXinluo/SWL2457/2014, Virus inoculation after drug administration.
[10] abbreviates: Influenza A virus, H1N1, MDCK, read-out: IC50, CPE reduction, A/HebeiXinhua/SWL1106/2017, Drug administration after virus inoculation.
Setting [11] is: Influenza A virus, H1N1, MDCK, read-out: IC50, CPE reduction, A/HebeiXinhua/SWL1106/2017, Pre-incubation of virus and drug.
[12] abbreviates: Influenza A virus, H1N1, MDCK, read-out: IC50, CPE reduction, A/HebeiXinhua/SWL1106/2017, Simultaneous action of virus and drug.
The mark [13] stands for this setting: Influenza A virus, H1N1, MDCK, read-out: IC50, CPE reduction, A/HebeiXinhua/SWL1106/2017, Virus inoculation after drug administration.
Where [14] appears, read: read-out: IC50, dual-oseltamivir and amantadine-resistant H1N1 CPE assay, all modes except for drug administration after viral infection.

The values that follow come from paper PMC7026480, “Discovery of Multitarget-Directed Ligands Against Influenza A Virus From Compound Yizhihao Through a Predictive System for Compound-Protein Interactions” (Frontiers in Cellular and Infection Microbiology, 2020).

Read-outs that look alike come from different tables or passages of the source.

On to `C=C(C(=O)O)[C@H]1CC[C@H](C)[C@@H]2CC(=O)C(C)=C2C1` (stereo in doubt) [Rupestonic acid], for which the IC50 in test [1] and in test [2] was > 100 µM each time.

`O=c1cc(-c2ccc(O)cc2)oc2cc(O)cc(O)c12` [Apigenin]: the IC50 was < 100 µM in test [3]; 28.1 ± 2.37 µM in test [4] (setting [6]); 32.1 ± 4.13 µM in test [4] (setting [7]); 40.5 ± 4 µM in test [4] (setting [8]); 36.5 ± 5.79 µM in test [4] (setting [9]); > 100 µM in test [5] (setting [10]). The IC50 in test [5] (setting [11]) is 31.6 ± 10.3 µM; in test [5] (setting [12]) it was 35.4 ± 3.98 µM; in test [5] (setting [13]), 39 ± 3.82 µM; in test [5] (setting [14]), < 100 µM.

`O=C(/C=C/c1ccc(O)c(O)c1)O[C@@H]1C[C@](O)(C(=O)O)C[C@@H](O)[C@H]1O` [Chlorogenic acid]: the IC50 in test [1] and in test [2] was > 100 µM in each case. Further, the “inhibition of virus-induced CPE” value in test [3] was “no inhibition of virus-induced CPE”.

Turning to `C=C[C@@H]1CNC(=S)O1` [Epigoitrin], the IC50 in test [1] and in test [2] was > 100 µM each time.

Regarding `O=c1cc(-c2ccc(O)c(O)c2)oc2cc(O)cc(O)c12` [Luteolin], the IC50 in test [3] is < 100 µM; in test [4] (setting [6]) it was 31.9 ± 1.99 µM; in test [4] (setting [7]), 1.14 ± 1.02 µM; in test [4] (setting [8]), 24.9 ± 9.62 µM; in test [4] (setting [9]) it was > 100 µM; in test [5] (setting [10]) it was > 100 µM. In addition, the IC50 in test [5] (setting [11]) is 15.2 ± 4.46 µM; in test [5] (setting [12]), 20.1 ± 10.6 µM; in test [5] (setting [13]), 47.2 ± 7.14 µM; in test [5] (setting [14]), < 100 µM.

Take `O=c1cc(-c2ccc(O)c(O)c2)oc2c([C@@H]3O[C@H](CO)[C@@H](O)[C@H](O)[C@H]3O)c(O)cc(O)c12` [Orientin]: the IC50 in test [1] and in test [2] was > 100 µM throughout. In addition, the “inhibition of virus-induced CPE” value in test [3] is on record as “no inhibition of virus-induced CPE”.

For `CCOC(=O)C1=C[C@@H](OC(CC)CC)[C@H](NC(C)=O)[C@@H](N)C1` [Oseltamivir, oseltamivir phosphate, reference compound], the IC50 in test [4] (setting [6]) was 86.9 ± 7.8 µM; in test [4] (setting [7]), 25.4 ± 8.32 µM; in test [4] (setting [8]), 25.5 ± 8.36 µM; in test [4] (setting [9]) it was > 100 µM; in test [5] (setting [10]), > 100 µM; in test [5] (setting [11]), > 100 µM. Further, the IC50 in test [5] (setting [12]) and in test [5] (setting [13]) was > 100 µM each time. The “IC50, dual-oseltamivir and amantadine-resistant H1N1 CPE assay, in the modes tested” value in test [5] is “no effect”.

For `O=c1c(O)c(-c2ccc(O)c(O)c2)oc2cc(O)cc(O)c12` [Quercetin], the IC50 was < 100 µM in test [3]; 20.7 ± 14.7 µM in test [4] (setting [6]); 7.73 ± 3.04 µM in test [4] (setting [7]); 37.1 ± 18.2 µM in test [4] (setting [8]); 86.1 ± 13.8 µM in test [4] (setting [9]); > 100 µM in test [5] (setting [10]). Further, the IC50 in test [5] (setting [11]) is 6.93 ± 4.6 µM; in test [5] (setting [12]), 14.6 ± 1.8 µM; in test [5] (setting [13]), 19.1 ± 1.95 µM; in test [5] (setting [14]) it was < 100 µM.

As for `NC(=O)c1ncn([C@@H]2O[C@H](CO)[C@@H](O)[C@H]2O)n1` [Ribavirin, ribavirin, reference compound], the IC50 is 25.9 ± 14.6 µM in test [4] (setting [6]); 24.6 ± 3.1 µM in test [4] (setting [7]); 26.2 ± 2.4 µM in test [4] (setting [8]); 86.7 ± 9.8 µM in test [4] (setting [9]); 57.9 ± 10.5 µM in test [5] (setting [10]); 29.8 ± 6.4 µM in test [5] (setting [11]). Also, the IC50 in test [5] (setting [12]) is 36.2 ± 13.7 µM; in test [5] (setting [13]), 39.9 ± 9.71 µM; in test [5] (Influenza A virus, H1N1, MDCK, read-out: IC50, dual-oseltamivir and amantadine-resistant H1N1 CPE assay, in the modes tested), 29.8 to 57.9 µM.
